Test results as given in patent US20130210623A1, “PESTICIDAL MIXTURES INCLUDING ISOXAZOLINE DERIVATIVES” (SYNGENTA CROP PROTECTION LLC, priority 2010, published 2013).

Legend:
[1] = system: Heliothis virescens (Tobacco Budworm); test: Heliothis virescens egg/larval mortality on artificial diet, 24-well microtiter plate; type: in vivo; conditions: 4 days
Protocol: Heliothis virescens (Tobacco Budworm)
Eggs (0-24 h old) are placed in 24-well microtiter plate on artificial diet and treated with test solutions (DMSO) by pipetting. After an incubation period of 4 days, samples are checked for larval mortality.

[2] = system: Tetranychus urticae (Two-Spotted Spider Mite); test: Tetranychus urticae mixed population mortality on sprayed bean leaf discs; type: in vivo
Excerpt: Tetranychus urticae (Two-Spotted Spider Mite)
Bean leaf discs on agar in 24-well microtiter plates are sprayed with test solutions (DMSO). After drying, the leaf discs are infested with mite populations of mixed ages. 8 days later, discs are checked for mixed population mortality.

Molecule: CC1(C)[C@H](C(=O)O[C@H](C#N)c2cccc(Oc3ccccc3)c2)[C@@H]1/C=C(\Cl)C(F)(F)F (racemic) [Lambda Cyhalothrin, lambda-cyhalothrin]
- AVERAGE DEAD IN % Lambda Cyhalothrin ([1]; Table 2, Lambda Cyhalothrin alone 0.0125 ppm AI): 0%
- AVERAGE DEAD IN % Lambda Cyhalothrin ([1]; Table 2, Lambda Cyhalothrin alone 0.025 ppm AI): 0%
- AVERAGE DEAD IN % Lambda Cyhalothrin ([1]; Table 2, Lambda Cyhalothrin alone 0.05 ppm AI): 0%
- AVERAGE DEAD IN % Lambda Cyhalothrin ([1]; Table 2, Lambda Cyhalothrin alone 0.1 ppm AI): 50%
- AVERAGE DEAD IN % Lambda Cyhalothrin ([1]; Table 2, Lambda Cyhalothrin alone 0.2 ppm AI): 80%
- AVERAGE DEAD IN % Lambda Cyhalothrin ([1]; Table 2, Lambda Cyhalothrin alone 0.4 ppm AI): 90%
- AVERAGE DEAD IN % Lambda Cyhalothrin ([2]; Table 6, Lambda Cyhalothrin alone 6.25 ppm AI, 8 days): 0%
- AVERAGE DEAD IN % Lambda Cyhalothrin ([2]; Table 6, Lambda Cyhalothrin alone 12.5 ppm AI, 8 days): 50%
- AVERAGE DEAD IN % Lambda Cyhalothrin ([2]; Table 6, Lambda Cyhalothrin alone 25 ppm AI, 8 days): 90%
- AVERAGE DEAD IN % Lambda Cyhalothrin ([2]; Table 6, Lambda Cyhalothrin alone 50 ppm AI, 8 days): 85%

Molecule: CN/C(=N\[N+](=O)[O-])NCc1cnc(Cl)s1 [Clothianidin, clothianidin]
- AVERAGE DEAD IN % Clothianidin ([1]; Table 4, Clothianidin alone 1.5 ppm AI): 0%
- AVERAGE DEAD IN % Clothianidin ([1]; Table 4, Clothianidin alone 3 ppm AI): 0%
- AVERAGE DEAD IN % Clothianidin ([1]; Table 4, Clothianidin alone 6 ppm AI): 25%
- AVERAGE DEAD IN % Clothianidin ([1]; Table 4, Clothianidin alone 12 ppm AI): 50%
- AVERAGE DEAD IN % Clothianidin ([1]; Table 4, Clothianidin alone 24 ppm AI): 85%
- AVERAGE DEAD IN % Clothianidin ([2]; Table 8, Clothianidin alone 50 ppm AI, 8 days): 0%
- AVERAGE DEAD IN % Clothianidin ([2]; Table 8, Clothianidin alone 100 ppm AI, 8 days): 0%
- AVERAGE DEAD IN % Clothianidin ([2]; Table 8, Clothianidin alone 200 ppm AI, 8 days): 0%
- AVERAGE DEAD IN % Clothianidin ([2]; Table 8, Clothianidin alone 400 ppm AI, 8 days): 0%
- AVERAGE DEAD IN % Clothianidin ([2]; Table 8, Clothianidin alone 800 ppm AI, 8 days): 0%

Molecule: Cc1cc(C2=NO[C@@](c3cc(Cl)cc(Cl)c3)(C(F)(F)F)C2)ccc1C(=O)NCC(=O)NCC(F)(F)F [I-A2]
- AVERAGE DEAD IN % COMPOUND I-A2 ([1]; Table 1, I-A2 alone 0.025 ppm AI): 0%
- AVERAGE DEAD IN % COMPOUND I-A2 ([1]; Table 1, I-A2 alone 0.05 ppm AI): 0%
- AVERAGE DEAD IN % COMPOUND I-A2 ([1]; Table 1, I-A2 alone 0.1 ppm AI): 5%
- AVERAGE DEAD IN % COMPOUND I-A2 ([1]; Table 1, I-A2 alone 0.2 ppm AI): 75%
- AVERAGE DEAD IN % COMPOUND I-A2 ([1]; Table 1, I-A2 alone 0.4 ppm AI): 94%
- AVERAGE DEAD IN % COMPOUND I-A2 ([1]; Table 1, I-A2 alone 0.8 ppm AI): 99%
- AVERAGE DEAD IN % COMPOUND I-A2 ([1]; Table 2, I-A2 alone 0.025 ppm AI): 0%
- AVERAGE DEAD IN % COMPOUND I-A2 ([1]; Table 2, I-A2 alone 0.05 ppm AI): 0%
- AVERAGE DEAD IN % COMPOUND I-A2 ([1]; Table 2, I-A2 alone 0.1 ppm AI): 5%
- AVERAGE DEAD IN % COMPOUND I-A2 ([1]; Table 2, I-A2 alone 0.2 ppm AI): 75%
- AVERAGE DEAD IN % COMPOUND I-A2 ([1]; Table 2, I-A2 alone 0.4 ppm AI): 94%
- AVERAGE DEAD IN % COMPOUND I-A2 ([1]; Table 2, I-A2 alone 0.8 ppm AI): 99%
- AVERAGE DEAD IN % COMPOUND I-A2 ([1]; Table 3, I-A2 alone 0.05 ppm AI): 0%
- AVERAGE DEAD IN % COMPOUND I-A2 ([1]; Table 3, I-A2 alone 0.1 ppm AI): 0%
- AVERAGE DEAD IN % COMPOUND I-A2 ([1]; Table 3, I-A2 alone 0.2 ppm AI): 73%
- AVERAGE DEAD IN % COMPOUND I-A2 ([1]; Table 3, I-A2 alone 0.4 ppm AI): 89%
- AVERAGE DEAD IN % COMPOUND I-A2 ([1]; Table 3, I-A2 alone 0.8 ppm AI): 98%
- AVERAGE DEAD IN % COMPOUND I-A2 ([1]; Table 4, I-A2 alone 0.05 ppm AI): 0%
- AVERAGE DEAD IN % COMPOUND I-A2 ([1]; Table 4, I-A2 alone 0.1 ppm AI): 0%
- AVERAGE DEAD IN % COMPOUND I-A2 ([1]; Table 4, I-A2 alone 0.2 ppm AI): 73%
- AVERAGE DEAD IN % COMPOUND I-A2 ([1]; Table 4, I-A2 alone 0.4 ppm AI): 89%
- AVERAGE DEAD IN % COMPOUND I-A2 ([1]; Table 4, I-A2 alone 0.8 ppm AI): 98%
- AVERAGE DEAD IN % COMPOUND I-A2 ([2]; Table 5, I-A2 alone 0.1 ppm AI, 8 days): 17%
- AVERAGE DEAD IN % COMPOUND I-A2 ([2]; Table 5, I-A2 alone 0.2 ppm AI, 8 days): 83%
- AVERAGE DEAD IN % COMPOUND I-A2 ([2]; Table 5, I-A2 alone 0.4 ppm AI, 8 days): 100%
- AVERAGE DEAD IN % COMPOUND I-A2 ([2]; Table 6, I-A2 alone 0.1 ppm AI, 8 days): 17%
- AVERAGE DEAD IN % COMPOUND I-A2 ([2]; Table 6, I-A2 alone 0.2 ppm AI, 8 days): 83%
- AVERAGE DEAD IN % COMPOUND I-A2 ([2]; Table 6, I-A2 alone 0.8 ppm AI, 8 days): 100%
- AVERAGE DEAD IN % COMPOUND I-A2 ([2]; Table 7, I-A2 alone 0.025 ppm AI, 0 * = 0% control assumed since control at the higher rate was also 0%): 0 * %
- AVERAGE DEAD IN % COMPOUND I-A2 ([2]; Table 7, I-A2 alone 0.05 ppm AI, 0 * = 0% control assumed since control at the higher rate was also 0%): 0 * %
- AVERAGE DEAD IN % COMPOUND I-A2 ([2]; Table 7, I-A2 alone 0.1 ppm AI, 8 days): 0%
- AVERAGE DEAD IN % COMPOUND I-A2 ([2]; Table 7, I-A2 alone 0.2 ppm AI, 8 days): 85%
- AVERAGE DEAD IN % COMPOUND I-A2 ([2]; Table 7, I-A2 alone 0.4 ppm AI, 8 days): 95%
- AVERAGE DEAD IN % COMPOUND I-A2 ([2]; Table 8, I-A2 alone 0.1 ppm AI, 8 days): 0%
- AVERAGE DEAD IN % COMPOUND I-A2 ([2]; Table 8, I-A2 alone 0.2 ppm AI, 8 days): 85%
- AVERAGE DEAD IN % COMPOUND I-A2 ([2]; Table 8, I-A2 alone 0.4 ppm AI, 8 days): 95%

Molecule: CCOC(=O)OC1=C(c2cc(C)ccc2C)C(=O)N[C@]12CC[C@@H](OC)CC2 [Spirotetramat, spirotetramat]
- AVERAGE DEAD IN % Spirotetramat ([1]; Table 3, Spirotetramat alone 25 ppm AI): 10%
- AVERAGE DEAD IN % Spirotetramat ([1]; Table 3, Spirotetramat alone 50 ppm AI): 0%
- AVERAGE DEAD IN % Spirotetramat ([1]; Table 3, Spirotetramat alone 100 ppm AI): 0%
- AVERAGE DEAD IN % Spirotetramat ([1]; Table 3, Spirotetramat alone 200 ppm AI): 0%
- AVERAGE DEAD IN % Spirotetramat ([1]; Table 3, Spirotetramat alone 400 ppm AI): 15%
- AVERAGE DEAD IN % Spirotetramat ([1]; Table 3, Spirotetramat alone 800 ppm AI): 80%
- AVERAGE DEAD IN % Spirotetramat ([2]; Table 7, Spirotetramat alone 12.5 ppm AI, 8 days): 75%
- AVERAGE DEAD IN % Spirotetramat ([2]; Table 7, Spirotetramat alone 25 ppm AI, 8 days): 85%
- AVERAGE DEAD IN % Spirotetramat ([2]; Table 7, Spirotetramat alone 50 ppm AI, 8 days): 90%
- AVERAGE DEAD IN % Spirotetramat ([2]; Table 7, Spirotetramat alone 100 ppm AI, 8 days): 90%
- AVERAGE DEAD IN % Spirotetramat ([2]; Table 7, Spirotetramat alone 200 ppm AI, 8 days): 90%

Molecule: abamectin
- AVERAGE DEAD IN % Abamectin ([1]; Table 1, Abamectin alone 0.1 ppm AI): 0%
- AVERAGE DEAD IN % Abamectin ([1]; Table 1, Abamectin alone 0.2 ppm AI): 0%
- AVERAGE DEAD IN % Abamectin ([1]; Table 1, Abamectin alone 0.4 ppm AI): 10%
- AVERAGE DEAD IN % Abamectin ([1]; Table 1, Abamectin alone 0.8 ppm AI): 65%
- AVERAGE DEAD IN % Abamectin ([1]; Table 1, Abamectin alone 1.6 ppm AI): 90%
- AVERAGE DEAD IN % Abamectin ([1]; Table 1, Abamectin alone 3.2 ppm AI): 90%
- AVERAGE DEAD IN % Abamectin ([2]; Table 5, Abamectin alone 0.0125 ppm AI, 8 days): 0%
- AVERAGE DEAD IN % Abamectin ([2]; Table 5, Abamectin alone 0.025 ppm AI, 8 days): 25%
- AVERAGE DEAD IN % Abamectin ([2]; Table 5, Abamectin alone 0.05 ppm AI, 8 days): 55%
- AVERAGE DEAD IN % Abamectin ([2]; Table 5, Abamectin alone 0.1 ppm AI, 8 days): 55%
- AVERAGE DEAD IN % Abamectin ([2]; Table 5, Abamectin alone 0.2 ppm AI, 8 days): 60%
